Measured values as given in patent US20050009840A1 (SUGEN, INC., priority 2003, published 2005).

molecular target: T1, Met kinase domain (GST fusion protein) (Homo sapiens, UniProt P08581); test: Met transphosphorylation assay (ELISA, poly(glu-tyr) substrate); assay type: biochemical; settings: read-out: Met IC50;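 further: Cell-free ELISA with plate-bound poly(Glu:Tyr 4:1) phosphorylated by GST-fused Met kinase domain plus ATP and Mn2+, phosphotyrosine detected by anti-phosphotyrosine antibody with HRP and ABTS read-out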
T1 construct: Purified GST fusion protein containing the Met kinase domain
T1 sequence (P08581 1078-1345 limits assumed): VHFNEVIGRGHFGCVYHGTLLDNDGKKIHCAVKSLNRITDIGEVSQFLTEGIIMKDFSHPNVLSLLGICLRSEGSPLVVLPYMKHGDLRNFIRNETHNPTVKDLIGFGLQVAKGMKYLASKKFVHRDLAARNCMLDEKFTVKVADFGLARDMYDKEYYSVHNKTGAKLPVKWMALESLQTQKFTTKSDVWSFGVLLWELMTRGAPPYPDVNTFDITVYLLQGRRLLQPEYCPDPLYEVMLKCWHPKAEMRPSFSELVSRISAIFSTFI

IC50 | Compound
69 nM | CC(Oc1nc(-c2cccc(C(=O)N3CC[C@H](N)C3)c2)cnc1N)c1c(Cl)ccc(F)c1Cl (stereo partly drawn) [II-84, (3-{5-Amino-6-[1-(2,6-dichloro-3-fluoro-phenyl)-ethoxy]-pyrazin-2-yl}-phenyl)-[(3S)-3-amino-pyrrolidin-1-yl)-m-ethanone]
110 nM | CC(Oc1nc(-c2cccc(C(=O)N3CC[C@@H](N)C3)c2)cnc1N)c1c(Cl)ccc(F)c1Cl (stereo partly drawn) [II-85, (3-{5-Amino-6-[1-(2,6-dichloro-3-fluoro-phenyl)-ethoxy]-pyrazin-2-yl}-phenyl)-[(3R)-3-amino-pyrrolidin-1-yl)-m-ethanone]
150 nM | CC(Oc1nc(-c2cccc(C(=O)NCCCN3CCCC3)c2)cnc1N)c1c(Cl)ccc(F)c1Cl (stereo not drawn) [II-91, 3-{5-Amino-6-[1-(2,6-dichloro-3-fluoro-phenyl)-ethoxy]-pyrazin-2-yl}-N-(3-pyrrolidin-1-yl-propyl)-benzamide]
150 nM | CC(Oc1nc(-c2cccc(C(=O)N3CCC(N4CCCC4)CC3)c2)cnc1N)c1c(Cl)ccc(F)c1Cl (stereo not drawn) [II-92, (3-{5-Amino-6-[1-(2,6-dichloro-3-fluoro-phenyl)-ethoxy]-pyrazin-2-yl}-phenyl)-(4-pyrrolidin-1-yl-piperidin-1-yl)-methanone]
150 nM | CC(Oc1nc(-c2cccc(C(=O)NCCCN3CCCC3)c2)cnc1N)c1c(Cl)ccc(F)c1Cl (stereo not drawn) [II-96, 3-{5-Amino-6-[1-(2,6-dichloro-3-fluoro-phenyl)-ethoxy]-pyrazin-2-yl}-N-(3-pyrrolidin-1-yl-propyl)-benzamide]
350 nM | CC(Oc1nc(-c2cccc(C(=O)NCCCN3CCCC3)c2)cnc1N)c1c(F)ccc(F)c1Cl (stereo not drawn) [II-97, 3-{5-Amino-6-[1-(2-chloro-3,6-difluoro-phenyl)-ethoxy]-pyrazin-2-yl}-N-(3-pyrrolidin-1-yl-propyl)-benzamide]
210 nM | CC(Oc1nc(-c2cccc(C(=O)NC3CCN(C)CC3)c2)cnc1N)c1c(F)ccc(F)c1Cl (stereo not drawn) [II-98, 3-{5-Amino-6-[1-(2-chloro-3,6-difluoro-phenyl)-ethoxy]-pyrazin-2-yl}-N-(1-methyl-piperidin-4-yl)-benzamide]
180 nM | CC(Oc1nc(-c2cccc(C(=O)NCCN3CCCC3)c2)cnc1N)c1c(F)ccc(F)c1Cl (stereo not drawn) [II-99, 3-{5-Amino-6-[1-(2-chloro-3,6-difluoro-phenyl)-ethoxy]-pyrazin-2-yl}-N-(2-pyrrolidin-1-yl-ethyl)-benzamide]
310 nM | CC(Oc1nc(-c2cccc(C(=O)NCCN3CCOCC3)c2)cnc1N)c1c(F)ccc(F)c1Cl (stereo not drawn) [II-100, 3-{5-Amino-6-[1-(2-chloro-3,6-difluoro-phenyl)-ethoxy]-pyrazin-2-yl}-N-(2-morpholin-4-yl-ethyl)-benzamide]
640 nM | CC(=O)N1CCN(CCNC(=O)c2cccc(-c3cnc(N)c(OC(C)c4c(F)ccc(F)c4Cl)n3)c2)CC1 (stereo not drawn) [II-101, N-[2-(4-Acetyl-piperazin-1-yl)ethyl]-3-{5-amino-6-[1-(2-chloro-3,6-difluoro-phenyl)-ethoxy]-pyrazin-2-yl}-benzamide]
160 nM | CC(Oc1nc(-c2ccc(C(=O)N3CCN(C)CC3)cc2)cnc1N)c1c(F)ccc(F)c1Cl (stereo not drawn) [II-110, (4-{5-Amino-6-[1-(2-chloro-3,6-difluoro-phenyl)-ethoxy]-pyrazin-2-yl}-phenyl)-(4-methyl-piperazin-1-yl)-methanone]
170 nM | CC(Oc1nc(-c2ccc(C(=O)N3CCC(N4CCCC4)CC3)cc2)cnc1N)c1c(F)ccc(F)c1Cl (stereo not drawn) [II-111, (4-{5-Amino-6-[1-(2-chloro-3,6-difluoro-phenyl)-ethoxy]-pyrazin-2-yl}-phenyl)-(4-pyrrolidin-1-yl-piperidin-1-yl)-methanone]
190 nM | CC(Oc1nc(-c2ccc(C(=O)N3C[C@@H](C)N[C@@H](C)C3)cc2)cnc1N)c1c(F)ccc(F)c1Cl (stereo partly drawn) [II-112]
180 nM | CC(Oc1nc(-c2ccc(C(=O)N3CCC[C@H]3CN3CCCC3)cc2)cnc1N)c1c(F)ccc(F)c1Cl (stereo partly drawn) [II-113, (4-{5-Amino-6-[1-(2-chloro-3,6-difluoro-phenyl)-ethoxy]-pyrazin-2-yl}-phenyl)-((S)-2-pyrrolidin-1-ylmethyl-pyrrolidin-1-yl)-methanone]
130 nM | CC(Oc1nc(-c2ccc(C(=O)N3CCC[C@@H]3CN3CCCC3)cc2)cnc1N)c1c(F)ccc(F)c1Cl (stereo partly drawn) [II-114, (4-{5-Amino-6-[1-(2-chloro-3,6-difluoro-phenyl)-ethoxy]-pyrazin-2-yl}-phenyl)-((R)-2-pyrrolidin-1-ylmethyl-pyrrolidin-1-yl)-methanone]
78 nM | CC(Oc1nc(-c2ccc(C(=O)N3CC[C@@H](N)C3)cc2)cnc1N)c1c(F)ccc(F)c1Cl (stereo partly drawn) [II-115, (4-{5-Amino-6-[1-(2-chloro-3,6-difluoro-phenyl)-ethoxy]-pyrazin-2-yl}-phenyl)-((R)-3-amino-pyrrolidin-1-yl)-methanone]
190 nM | CC(Oc1nc(-c2ccc(C(=O)NC3CCN(C)CC3)cc2)cnc1N)c1c(F)ccc(F)c1Cl (stereo not drawn) [II-116, 4-{5-Amino-6-[1-(2-chloro-3,6-difluoro-phenyl)-ethoxy]-pyrazin-2-yl}-N-(1-methyl-piperidin-4-yl)-benzamide]
170 nM | CC(Oc1nc(-c2cccc(C(=O)N3CCN(C)CC3)c2)cnc1N)c1c(Cl)ccc(F)c1Cl (stereo not drawn) [II-130, (3-{5-Amino-6-[1-(2,6-dichloro-3-fluoro-phenyl)-ethoxy]-pyrazin-2-yl}-phenyl)-(4-methyl-piperazin-1-yl)-methanone]

Second part, the molecule before the results:

Compound | IC50
CC(=O)N1CCN(CCNC(=O)c2cccc(-c3cnc(N)c(OC(C)c4c(Cl)ccc(F)c4Cl)n3)c2)CC1 (stereo not drawn) [II-87, N-[2-(4-Acetyl-piperazin-1-yl)-ethyl]-3-{5-amino-6-[1-(2,6-dichloro-3-fluoro-phenyl)-ethoxy]-pyrazin-2-yl}-benzamide] | 186 nM
Nc1ncc(-c2ccc(C(=O)NCCN3CCOCC3)cc2)nc1OCc1cccc(F)c1C(F)(F)F [II-94, 4-[5-Amino-6-(3-fluoro-2-trifluoromethyl-benzyloxy)-pyrazin-2-yl]-N-(2-morpholin-4-yl-ethyl)-benzamide] | 220 nM
CN1CCC(NC(=O)c2ccc(-c3cnc(N)c(OCc4cccc(F)c4C(F)(F)F)n3)cc2)CC1 [II-95, 4-[5-Amino-6-(3-fluoro-2-trifluoromethyl-benzyloxy)-pyrazin-2-yl]-N-(1-methyl-piperidin-4-yl)-benzamide] | 81 nM
CC(Oc1nc(-c2ccc(C(=O)NCCCN3CCCC3)cc2)cnc1N)c1c(F)ccc(F)c1Cl (stereo not drawn) [II-109, 4-{5-Amino-6-[1-(2-chloro-3,6-difluoro-phenyl)-ethoxy]-pyrazin-2-yl}-N-(3-pyrrolidin-1-yl-propyl)-benzamide] | 100 nM
CC(Oc1nc(-c2ccc(C(=O)NCCN3CCCC3)cc2)cnc1N)c1c(F)ccc(F)c1Cl (stereo not drawn) [II-117, 4-{5-Amino-6-[1-(2-chloro-3,6-difluoro-phenyl)-ethoxy]-pyrazin-2-yl}-N-(2-pyrrolidin-1-yl-ethyl)-benzamide] | 110 nM
CC(Oc1nc(-c2ccc(C(=O)NCCN3CCOCC3)cc2)cnc1N)c1c(F)ccc(F)c1Cl (stereo not drawn) [II-118, 4-{5-Amino-6-[1-(2-chloro-3,6-difluoro-phenyl)-ethoxy]-pyrazin-2-yl}-N-(2-morpholin-4-yl-ethyl)-benzamide] | 260 nM
CC(=O)N1CCN(CCNC(=O)c2ccc(-c3cnc(N)c(OC(C)c4c(F)ccc(F)c4Cl)n3)cc2)CC1 (stereo not drawn) [II-119, N-[2-(4-Acetyl-piperazin-1-yl)-ethyl]-4-{5-amino-6-[1-(2-chloro-3,6-difluoro-phenyl)-ethoxy]-pyrazin-2-yl}-benzamide] | 480 nM
CC(Oc1nc(-c2ccc(NS(=O)(=O)CCN3CCN(C(=O)CO)CC3)cc2)cnc1N)c1c(F)ccc(F)c1Cl (stereo not drawn) [II-120, 2-[4-(2-Hydroxy-acetyl)-piperazin-1-yl]-ethanesulfonic acid (4-{5-amino-6-[1-(2-chloro-3,6-difluoro-phenyl)-ethoxy]-pyrazin-2-yl}-phenyl)-amide] | 190 nM
Nc1ncc(-c2cccc(C(=O)N3CCC(N4CCCC4)CC3)c2)nc1OCc1cccc(F)c1C(F)(F)F [II-122, {3-[5-Amino-6-(3-fluoro-2-trifluoromethyl-benzyloxy):pyrazin-2-yl]-phenyl)(4-pyrrolidin-1-yl-piperidin-1-yl)-methanone] | 190 nM
CN1CCN(C(=O)c2cccc(-c3cnc(N)c(OCc4cccc(F)c4C(F)(F)F)n3)c2)CC1 [II-124, {3-[5-Amino-6-(3-fluoro-2-trifluoromethyl-benzylloxy)-pyrazin-2-yl]-phenyl}-(4-methyl-piperazin-1-yl)-methanone] | 230 nM
Nc1ncc(-c2cccc(C(=O)NCCCN3CCCC3)c2)nc1OCc1cccc(F)c1C(F)(F)F [II-125, 3-[5-Amino-6-(3-fluoro-2-trifluoromethyl-benzyloxy)-pyrazin-2-yl]-N-(3-pyrrolidin-1-yl-propyl)-benzamide] | 220 nM
CC(=O)N1CCN(CCNC(=O)c2cccc(-c3cnc(N)c(OCc4cccc(F)c4C(F)(F)F)n3)c2)CC1 [II-126, N-[2-(4-Acetyl-piperazin-1-yl)-ethyl]-3-[5-amino-6-(3-fluoro-2-trifluoromethyl-benzyloxy)-pyrazin-2-yl]-benzamide] | 650 nM
Nc1ncc(-c2ccc(C(=O)N3CCC(N4CCCC4)CC3)cc2)nc1OCc1cccc(F)c1C(F)(F)F [II-127, {4-[5-Amino-6-(3-fluoro-2-trifluoromethyl-benzyloxy)-pyrazin-2-yl]-phenyl}-(4-pyrrolidin-1-yl-piperidin-1-yl)-methanone] | 47 nM
CN1CCN(C(=O)c2ccc(-c3cnc(N)c(OCc4cccc(F)c4C(F)(F)F)n3)cc2)CC1 [II-128, {4-[5-Amino-6-(3-fluoro-2-trifluoromethyl-benzyloxy)-pyrazin-2-yl]-phenyl}-(4-methyl-piperazin-1-yl)-methanone] | 150 nM
Nc1ncc(-c2ccc(C(=O)N3CCC[C@H]3CN3CCCC3)cc2)nc1OCc1cccc(F)c1C(F)(F)F [II-129, {4-[5-Amino-6-(3-fluoro-2-trifluoromethyl-benzyloxy)-pyrazin-2-yl]-phenyl}-((S)-2-pyrrolidin-1-ylmethyl-pyrrolidin-1-yl)-methanone] | 52 nM
